Values quoted from earlier work in patent US20140010802A1, “SYSTEMS AND METHODS FOR DIAGNOSING A PREDISPOSITION TO DEVELOP CANCER” (University of Hawaii, Office of Technology Transfer and …, priority 2011, published 2014).

Test system: MM patients
Conditions: phase 1 clinical trial, 3 MM patients

Cc1c(CN2CCN(C(=O)[C@H](C)O)CC2)sc2c(N3CCOCC3)nc(-c3cnc(N)nc3)nc12 [GDC0980]
anti-tumor effects in patients: anti-tumor effects
